This experiment relates to FAK wildtype fibroblasts (MEFs). Put plainly: MTT cell viability assay, FAK wildtype vs FAK null fibroblasts. In kind it is cell-based. The note with it: 72 hours, p<0.05. The protocol: The 3-(4,5-dimethylthiazol-2-yl)-5-(3-carboxymethoxyphenyl)-2-(4-sulfophenyl)-2H-tetrazolium compound from Promega Viability kit (Madison, Ill.) was added, and the cells were incubated at 37° C. for 1-2 hours. The optical density on 96-plate was analyzed with a microplate reader at 490 nm to determine cell viability. In addition, cells were stained with trypan blue after 24 hours of treatment with Y15 and the percent of cells that stained positive were determined with a hemacytometer. Cell adhesion assay—The poly-L-Lysine or Collagen (5 μg/ml) coated 96-well plates were blocked with the blocking buffer (medium with 0.5% BSA) for 1 hour at 37 C. […] Then 2% SDS was added to the dried plated and OD at 590 nm was measured for detecting cell adhesion. […] Protein concentrations were determined using a Bio-Rad Kit. The boiled samples were loaded on Ready SDS-10% PAGE gels (Bio Rad, Inc) and used for Western blot analysis with the protein-specific antibody. […] Detachment Assay—Cells were plated with and without inhibitors for 24 hours, and detached and attached cells were counted in a hemocytometer. We calculated the percent of detachment by dividing the number of detached cells by the total number of cells. The percent of detached cells was calculated in three independent experiments. […] For each experiment 300 cells per treatment were counted. […]
In general terms: Tetrazolium dyes change colour on reduction, which living cells bring about.

From US8314150B2, “Kinase protein binding inhibitors” (priority 2008, dated 2012) come the findings set out here.

Structures are written as SMILES.

Turning to `Cl.Cl.Cl.Cl.Nc1cc(N)c(N)cc1N` [Y15, 1,2,4,5-benzenetetraamine tetrahydrochloride], the “dose from which viability of FAK wildtype fibroblasts decreased compared to FAK null fibroblasts” value is 0.1 µM.
